Experimental data from the NIST ThermoML archive (doi:10.1021/je060086x).
± gives the expanded uncertainty stated by the source. Each block holds one compound with its values, some of them ahead of it.

How the values were obtained:
[1] = excess molar enthalpy (molar enthalpy of mixing); xn = mol fraction of the nth substance listed; conditions: 298.15 K, 101 kPa, Liquid
[2] = 298.15 K; 101.33 kPa; Liquid
[3] = refractive index (Na D-line) (dimensionless); conditions: 298.15 K; 101.33 kPa; Liquid; Standard Abbe refractometry

excess molar enthalpy ([1]; x1 = 0.0914): 0.324 ± 0.014 kJ/mol
excess molar enthalpy ([1]; x1 = 0.1843): 0.518 ± 0.02 kJ/mol
excess molar enthalpy ([1]; x1 = 0.2821): 0.628 ± 0.024 kJ/mol
excess molar enthalpy ([1]; x1 = 0.3755): 0.678 ± 0.026 kJ/mol
excess molar enthalpy ([1]; x1 = 0.4761): 0.68 ± 0.026 kJ/mol
excess molar enthalpy ([1]; x1 = 0.577): 0.64 ± 0.025 kJ/mol
excess molar enthalpy ([1]; x1 = 0.6082): 0.609 ± 0.024 kJ/mol
excess molar enthalpy ([1]; x1 = 0.7027): 0.527 ± 0.021 kJ/mol
excess molar enthalpy ([1]; x1 = 0.802): 0.403 ± 0.016 kJ/mol
excess molar enthalpy ([1]; x1 = 0.9014): 0.23 ± 0.01 kJ/mol
SMILES: CC(O)CO (stereo not given) [1,2-propanediol] + CCCCCO

mass density [2]: 805.75 ± 0.23 kg/m3
refractive index [3]: 1.3974 ± 0.0005
SMILES: CCCCO [butan-1-ol]

mass density [2]: 810.88 ± 0.94 kg/m3
refractive index [3]: 1.4089 ± 0.0005
SMILES: CCCCCO [pentan-1-ol]

excess molar enthalpy ([1]; x1 = 0.0787): -0.0253 ± 0.0039 kJ/mol
excess molar enthalpy ([1]; x1 = 0.1565): -0.042 ± 0.0044 kJ/mol
excess molar enthalpy ([1]; x1 = 0.2336): -0.0532 ± 0.0047 kJ/mol
excess molar enthalpy ([1]; x1 = 0.3099): -0.0598 ± 0.005 kJ/mol
excess molar enthalpy ([1]; x1 = 0.3885): -0.0632 ± 0.0051 kJ/mol
excess molar enthalpy ([1]; x1 = 0.3952): -0.0586 ± 0.0049 kJ/mol
excess molar enthalpy ([1]; x1 = 0.4998): -0.0567 ± 0.0049 kJ/mol
excess molar enthalpy ([1]; x1 = 0.6004): -0.0518 ± 0.0047 kJ/mol
excess molar enthalpy ([1]; x1 = 0.7015): -0.0425 ± 0.0044 kJ/mol
excess molar enthalpy ([1]; x1 = 0.8026): -0.0311 ± 0.0041 kJ/mol
excess molar enthalpy ([1]; x1 = 0.9): -0.0164 ± 0.0036 kJ/mol
SMILES: CC(O)CO (stereo not given) [1,2-propanediol] + CO

mass density [2]: 1032.61 ± 0.31 kg/m3
refractive index [3]: 1.4323 ± 0.0005
SMILES: CC(O)CO (stereo not given) [1,2-propanediol]

mass density [2]: 815.2 ± 1.9 kg/m3
refractive index [3]: 1.4166 ± 0.0006
SMILES: CCCCCCO [hexan-1-ol]

mass density [2]: 785.15 ± 0.25 kg/m3
refractive index [3]: 1.3595 ± 0.0005
SMILES: CCO [ethanol]

excess molar enthalpy ([1]; x1 = 0.1008): 0.228 ± 0.01 kJ/mol
excess molar enthalpy ([1]; x1 = 0.201): 0.364 ± 0.015 kJ/mol
excess molar enthalpy ([1]; x1 = 0.3036): 0.44 ± 0.018 kJ/mol
excess molar enthalpy ([1]; x1 = 0.4025): 0.466 ± 0.018 kJ/mol
excess molar enthalpy ([1]; x1 = 0.5001): 0.446 ± 0.018 kJ/mol
excess molar enthalpy ([1]; x1 = 0.5049): 0.456 ± 0.018 kJ/mol
excess molar enthalpy ([1]; x1 = 0.6007): 0.407 ± 0.017 kJ/mol
excess molar enthalpy ([1]; x1 = 0.7015): 0.338 ± 0.014 kJ/mol
excess molar enthalpy ([1]; x1 = 0.8011): 0.246 ± 0.011 kJ/mol
excess molar enthalpy ([1]; x1 = 0.9009): 0.132 ± 0.0072 kJ/mol
SMILES: CC(O)CO (stereo not given) [1,2-propanediol] + CCCO

mass density [2]: 799.51 ± 0.24 kg/m3
refractive index [3]: 1.3833 ± 0.0005
SMILES: CCCO [propan-1-ol]

excess molar enthalpy ([1]; x1 = 0.1007): 0.308 ± 0.013 kJ/mol
excess molar enthalpy ([1]; x1 = 0.1971): 0.476 ± 0.019 kJ/mol
excess molar enthalpy ([1]; x1 = 0.2945): 0.565 ± 0.022 kJ/mol
excess molar enthalpy ([1]; x1 = 0.3853): 0.597 ± 0.023 kJ/mol
excess molar enthalpy ([1]; x1 = 0.4758): 0.592 ± 0.023 kJ/mol
excess molar enthalpy ([1]; x1 = 0.5644): 0.557 ± 0.022 kJ/mol
excess molar enthalpy ([1]; x1 = 0.6047): 0.519 ± 0.02 kJ/mol
excess molar enthalpy ([1]; x1 = 0.7062): 0.434 ± 0.017 kJ/mol
excess molar enthalpy ([1]; x1 = 0.8047): 0.323 ± 0.014 kJ/mol
excess molar enthalpy ([1]; x1 = 0.9026): 0.18 ± 0.0087 kJ/mol
SMILES: CC(O)CO (stereo not given) [1,2-propanediol] + CCCCO

excess molar enthalpy ([1]; x1 = 0.0997): 0.0899 ± 0.0059 kJ/mol
excess molar enthalpy ([1]; x1 = 0.1948): 0.144 ± 0.0076 kJ/mol
excess molar enthalpy ([1]; x1 = 0.2875): 0.176 ± 0.0086 kJ/mol
excess molar enthalpy ([1]; x1 = 0.381): 0.19 ± 0.009 kJ/mol
excess molar enthalpy ([1]; x1 = 0.4756): 0.189 ± 0.009 kJ/mol
excess molar enthalpy ([1]; x1 = 0.4952): 0.199 ± 0.0093 kJ/mol
excess molar enthalpy ([1]; x1 = 0.5972): 0.179 ± 0.0087 kJ/mol
excess molar enthalpy ([1]; x1 = 0.6991): 0.148 ± 0.0077 kJ/mol
excess molar enthalpy ([1]; x1 = 0.8005): 0.106 ± 0.0064 kJ/mol
excess molar enthalpy ([1]; x1 = 0.9004): 0.0569 ± 0.0049 kJ/mol
SMILES: CC(O)CO (stereo not given) [1,2-propanediol] + CCO

mass density [2]: 786.5 ± 0.51 kg/m3
refractive index [3]: 1.327 ± 0.0005
SMILES: CO [methanol]

excess molar enthalpy ([1]; x1 = 0.0905): 0.349 ± 0.015 kJ/mol
excess molar enthalpy ([1]; x1 = 0.1929): 0.577 ± 0.022 kJ/mol
excess molar enthalpy ([1]; x1 = 0.2872): 0.691 ± 0.026 kJ/mol
excess molar enthalpy ([1]; x1 = 0.3828): 0.747 ± 0.028 kJ/mol
excess molar enthalpy ([1]; x1 = 0.4778): 0.756 ± 0.029 kJ/mol
excess molar enthalpy ([1]; x1 = 0.5711): 0.724 ± 0.027 kJ/mol
excess molar enthalpy ([1]; x1 = 0.6718): 0.656 ± 0.025 kJ/mol
excess molar enthalpy ([1]; x1 = 0.7021): 0.612 ± 0.024 kJ/mol
excess molar enthalpy ([1]; x1 = 0.7996): 0.485 ± 0.019 kJ/mol
excess molar enthalpy ([1]; x1 = 0.904): 0.282 ± 0.012 kJ/mol
SMILES: CC(O)CO (stereo not given) [1,2-propanediol] + CCCCCCO
